Measured values reported in patent US20240116985A1, “STAPLED PEPTIDES AND METHODS THEREOF” (priority 2020, published 2024).
pIC50: −log10 of the molar value. Like-named read-outs stand apart in the source and are kept apart here.

How the values were obtained:
[1] = biological target: T1, full-length beta-Catenin (Uniprot ID P35222) (Homo sapiens, UniProt P35222); assay: Fluorescence polarization IC50 (beta-catenin / 5FAM-TCF4 10-53 competition); format: binding; details: fluorescence polarization; read-out: beta-Catenin FP IC50
T1 construct: 10 nM full-length beta-Catenin (Uniprot ID P35222)
T1 sequence (P35222 1-781): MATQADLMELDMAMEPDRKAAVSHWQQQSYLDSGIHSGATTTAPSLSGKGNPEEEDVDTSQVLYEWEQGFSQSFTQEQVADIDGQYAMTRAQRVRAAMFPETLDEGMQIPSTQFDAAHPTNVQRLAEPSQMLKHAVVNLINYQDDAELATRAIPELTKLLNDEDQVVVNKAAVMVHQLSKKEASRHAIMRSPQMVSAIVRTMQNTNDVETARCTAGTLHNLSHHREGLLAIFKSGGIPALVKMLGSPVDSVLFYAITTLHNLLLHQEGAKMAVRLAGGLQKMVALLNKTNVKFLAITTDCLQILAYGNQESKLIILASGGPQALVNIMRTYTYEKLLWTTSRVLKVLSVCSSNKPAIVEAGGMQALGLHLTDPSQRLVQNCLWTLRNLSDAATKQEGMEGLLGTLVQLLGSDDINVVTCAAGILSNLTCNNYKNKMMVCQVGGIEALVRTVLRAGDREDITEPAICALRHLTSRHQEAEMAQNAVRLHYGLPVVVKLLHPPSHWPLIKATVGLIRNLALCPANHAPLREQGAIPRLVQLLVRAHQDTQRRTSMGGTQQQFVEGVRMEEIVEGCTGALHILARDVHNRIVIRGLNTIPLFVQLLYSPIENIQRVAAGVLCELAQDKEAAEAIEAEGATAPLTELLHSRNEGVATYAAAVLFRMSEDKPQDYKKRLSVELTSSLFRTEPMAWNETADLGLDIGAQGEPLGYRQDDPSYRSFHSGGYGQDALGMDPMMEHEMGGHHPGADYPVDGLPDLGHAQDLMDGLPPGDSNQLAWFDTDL

[2] = system: COLO320DM cells; format: cell-based; details: COLO320DM cells, read-out: COLO320DM Proliferation Abs IC50
Experimental: COLO320DM proliferation assay IC50: In some embodiments, inhibition of cell proliferation by provided technologies were assessed using cell lines related to or from certain conditions, disorders or diseases. In some embodiments, cell proliferation was assessed in COLO320DM cells. In some embodiments, assessment was performed using the following procedure: On Day 1, cultured COLO320DM cells in a T75 flask were trypsinized in 3 mL of 0.25% trypsin/EDTA for 5 min and quenched with 10 mL RPMI-1640+4% HI FBS assay media. The cells were spun down at 1200 rpm for 5 min, the cell pellet collected and re-suspended at 5000 cells/mL in assay media. Using a Combi liquid handler, cells were dispensed (50 uL, 250 cells/well) into three 384 well plates. Plates were incubated at 37° C., […]. On day 2, compounds were added. A liquid handling system was used to prepare the compound dilution and dispense compound into assay plates. The compounds were serially diluted 1/2 in 90% DMSO to create a 7 point dose curve. From compound plate, 100 nL of compound were dispensed directly into wells of the assay plates to create a dose curve starting at 20 uM and ending at 313 nM. Assay plates were incubated at 37° C., […]. On day 6, assay plates were removed from the incubator and allowed to sit at room temperature for 30 min. Using a liquid handler, 20 uL of CellTiter Glo reagent was added to each well. The assay plates were shaken for 2 min and allowed to sit on the bench for 10-15 minutes. The assay plates were read using the CellTiter Glo protocol on a GloMax microplate reader, and the data analyzed using GraphPad Prism.

[3] = biological target: T2, beta-catenin/TCF4 engagement (Homo sapiens, UniProt P35222); assay: Nano-BRET target engagement assay (B-cat-Halo & TCF4-Luc in HEK293 cells); format: cell-based; details: read-out: NanoBRET Abs IC50
T2 construct: expressed in transfected cells; host or cells: HEK293
T2 sequence (P35222 1-781): T1 sequence (P35222 1-781)

SMILES | pIC50 [1] | pIC50 ([2]; absolute IC50) | pIC50 ([3]; absolute IC50) | pIC50 [2] | pIC50 [3]
CCCC[C@@H]1NC(=O)[C@H](Cc2ccccc2)NC(=O)[C@H](C)NC(=O)[C@H](C)NC(=O)[C@H](Cc2cccc(C(=O)O)c2)NC(=O)[C@H](CC(=O)O)NC(=O)C2(CCCC=CCCCOC(=O)N3CC[C@@](C(=O)N[C@@H](Cc4ccccc4C(F)(F)F)C(=O)N[C@@H](Cc4csc5ccccc45)C(=O)N[C@@H](CCC(=O)N4CCOCC4)C(N)=O)(C3)NC1=O)CCCC=CC[C@]1(CCCN1C(C)=O)C(=O)N[C@@H](CC(=O)O)C(=O)N[C@@H](CC(C)(C)C)C(=O)N2 (stereo partly drawn) [I-2542, Ac-PL3-Asp-Npg-B5-Asp-3COOHF-Ala-Ala-Phe-nLeu-PyrS2-2F3MeF-BztA-MorphGln-NH2] | 7.64 | < 4.70 | 5.40 | – | –
CC(=O)N1CCC[C@]12CC=CCCCC1(CCCC=CCCCOC(=O)N3CC[C@@](C(=O)N[C@@H](Cc4ccccc4Cl)C(=O)N[C@@H](Cc4csc5ccccc45)C(=O)N[C@@H](CC(N)=O)C(N)=O)(C3)NC(=O)[C@H](CC(C)C)NC(=O)[C@H](Cc3ccccc3)NC(=O)[C@H](C)NC(=O)[C@H](C)NC(=O)[C@H](Cc3cccc(C(=O)O)c3)NC(=O)[C@H](CC(=O)O)NC1=O)NC(=O)[C@H](CC(C)(C)C)NC(=O)[C@H](CC(=O)O)NC2=O (stereo partly drawn) [I-1904, Ac-PL3-Asp-Npg-B5-Asp-3COOHF-Ala-Ala-Phe-Leu-PyrS2-2C1F-BztA-Asn-NH2] | 7.82 | – | – | < 4.70 | 5.38
CC(=O)N1CCC[C@]12CC=CCCCC1(CCCC=CCCCOC(=O)N3CC[C@@](C(=O)N[C@@H](Cc4ccccc4Cl)C(=O)N[C@@H](Cc4csc5ccccc45)C(=O)N[C@@H](CC(N)=O)C(=O)N[C@@H](C)C(=O)N[C@@H](C)C(=O)N[C@@H](C)C(N)=O)(C3)NC(=O)[C@H](CC(C)C)NC(=O)[C@H](Cc3ccccc3)NC(=O)[C@H](C)NC(=O)[C@H](C)NC(=O)[C@H](Cc3cccc(C(=O)O)c3)NC(=O)[C@H](CC(=O)O)NC1=O)NC(=O)[C@H](CC(C)(C)C)NC(=O)[C@H](CC(=O)O)NC2=O (stereo partly drawn) [I-2040, Ac-PL3-Asp-Npg-B5-Asp-3COOHF-Ala-Ala-Phe-Leu-PyrS2-2C1F-BztA-Asn-Ala-Ala-Ala-NH2] | 7.62 | – | – | < 4.70 | 5.55
CC(=O)NCCCC[C@@H]1NC(=O)[C@H](Cc2ccccc2)NC(=O)[C@H](C)NC(=O)C(C)(C)NC(=O)[C@H](Cc2cccc(C(=O)O)c2)NC(=O)[C@H](CC(=O)O)NC(=O)C2(CCCC=CCCCOC(=O)N3CC[C@@](C(=O)N[C@@H](Cc4ccccc4C(F)(F)F)C(=O)N[C@@H](Cc4csc5ccccc45)C(=O)N[C@@H](C)C(=O)N[C@@H](C)C(N)=O)(C3)NC1=O)CCCC=CC[C@]1(CCCN1C(C)=O)C(=O)N[C@@H](CC(=O)O)C(=O)N[C@@H](CC(C)(C)C)C(=O)N2 (stereo partly drawn) [I-2579, Ac-PL3-Asp-Npg-B5-Asp-3COOHF-Aib-Ala-Phe-AcLys-PyrS2-2F3MeF-BztA-Ala-Ala-NH2] | 7.39 | – | – | 4.82 | 5.33
CC(=O)N1CCC[C@]12CC=CCCCC1(CCCC=CCCCOC(=O)N3CC[C@@](C(=O)N[C@@H](Cc4ccccc4C(F)(F)F)C(=O)N[C@@H](Cc4csc5ccccc45)C(=O)N[C@@H](CCC(=O)N(C)C)C(N)=O)(C3)NC(=O)[C@H](CC(C)C)NC(=O)[C@H](Cc3ccccc3)NC(=O)[C@H](C)NC(=O)[C@H](C)NC(=O)[C@H](Cc3cccc(C(=O)O)c3)NC(=O)[C@H](CC(=O)O)NC1=O)NC(=O)[C@H](CC(C)(C)C)NC(=O)[C@H](CC(=O)O)NC2=O (stereo partly drawn) [I-2532, Ac-PL3-Asp-Npg-B5-Asp-3COOHF-Ala-Ala-Phe-Leu-PyrS2-2F3MeF-BztA-Me2Gln-NH2] | 7.85 | < 4.70 | 5.35 | – | –
CC(=O)N1CCC[C@]12CC=CCCCC1(CCCC=CCCCOC(=O)N3CC[C@@](C(=O)N[C@@H](Cc4ccsc4)C(=O)N[C@@H](Cc4csc5ccccc45)C(=O)N[C@@H](CC(N)=O)C(=O)N[C@@H](C)C(=O)NC(C)(C)C(=O)N[C@@H](C)C(N)=O)(C3)NC(=O)[C@H](CC(C)C)NC(=O)[C@H](Cc3ccccc3)NC(=O)[C@H](C)NC(=O)[C@H](C)NC(=O)[C@H](Cc3cccc(C(=O)O)c3)NC(=O)[C@H](CC(=O)O)NC1=O)NC(=O)[C@H](CC(C)(C)C)NC(=O)[C@H](CC(=O)O)NC2=O (stereo partly drawn) [I-2271, Ac-PL3-Asp-Npg-B5-Asp-3COOHF-Ala-Ala-Phe-Leu-PyrS2-3Thi-BztA-Asn-Ala-Aib-Ala-NH2] | 7.89 | 5.05 | 5.64 | – | –
CC(=O)N1CCC[C@]12CC=CCCCC1(CCCC=CCCCOC(=O)N3CC[C@@](C(=O)N[C@@H](Cc4ccccc4C(F)(F)F)C(=O)N[C@@H](Cc4csc5ccccc45)C(=O)N[C@@H](CCC(N)=O)C(=O)N[C@@H](CC(C)C)C(=O)N[C@@H](CC(C)C)C(N)=O)(C3)NC(=O)[C@H](CC(C)C)NC(=O)[C@H](Cc3ccccc3)NC(=O)[C@H](C)NC(=O)[C@H](C)NC(=O)[C@H](Cc3cccc(C(=O)O)c3)NC(=O)[C@H](CC(=O)O)NC1=O)NC(=O)[C@H](CC(C)(C)C)NC(=O)[C@H](CC(=O)O)NC2=O (stereo partly drawn) [I-2380, Ac-PL3-Asp-Npg-B5-Asp-3COOHF-Ala-Ala-Phe-Leu-PyrS2-2F3MeF-BztA-Gln-Leu-Leu-NH2] | 6.48 | < 4.70 | 5.57 | – | –
CC(=O)N1CCC[C@]12CC=CCCCC1(CCCC=CCCCOC(=O)N3CC[C@@](C(=O)N[C@@H](Cc4ccccc4C(F)(F)F)C(=O)N[C@@H](Cc4csc5ccccc45)C(=O)N[C@@H](C)C(N)=O)(C3)NC(=O)[C@H](CC(C)C)NC(=O)[C@H](Cc3ccccc3)NC(=O)[C@H](C)NC(=O)[C@H](CCC(=O)N3Cc4ccccc4C3)NC(=O)[C@H](Cc3cccc(C(=O)O)c3)NC(=O)[C@H](CC(=O)O)NC1=O)NC(=O)[C@H](CC(C)(C)C)NC(=O)[C@H](CC(=O)O)NC2=O (stereo partly drawn) [I-2320, Ac-PL3-Asp-Npg-B5-Asp-3COOHF-[isoindoline]GlnR-Ala-Phe-Leu-PyrS2-2F3MeF-BztA-Ala-NH2] | 7.54 | < 4.70 | 5.57 | – | –
CC(=O)N1CCC[C@]12CC=CCCCC1(CCCC=CCCCOC(=O)N3CC[C@@](C(=O)N[C@@H](Cc4ccsc4)C(=O)N[C@@H](Cc4csc5ccccc45)C(=O)N[C@@H](CO)C(=O)N[C@@H](C)C(N)=O)(C3)NC(=O)[C@H](CO)NC(=O)[C@H](Cc3ccccc3)NC(=O)[C@H](C)NC(=O)C(C)(C)NC(=O)[C@H](Cc3cccc(C(=O)O)c3)NC(=O)[C@H](CC(=O)O)NC1=O)NC(=O)[C@H](CC(C)(C)C)NC(=O)[C@H](CC(=O)O)NC2=O (stereo partly drawn) [I-2577, Ac-PL3-Asp-Npg-B5-Asp-3COOHF-Aib-Ala-Phe-Ser-PyrS2-3Thi-BztA-Ser-Ala-NH2] | 8.15 | – | – | 5.02 | 5.57
CC(=O)N1CCC[C@]12CC=CCCCC1(CCCC=CCCCOC(=O)N3CC[C@@](C(=O)N[C@@H](Cc4ccccc4C(F)(F)F)C(=O)N[C@@H](Cc4csc5ccccc45)C(=O)N[C@@H](CCC(=O)N4CCOCC4)C(N)=O)(C3)NC(=O)[C@H](CC(C)C)NC(=O)[C@H](Cc3ccccc3)NC(=O)[C@H](C)NC(=O)[C@H](C)NC(=O)[C@H](Cc3cccc(C(=O)O)c3)NC(=O)[C@H](CC(=O)O)NC1=O)NC(=O)[C@H](CC(C)(C)C)NC(=O)[C@H](CC(=O)O)NC2=O (stereo partly drawn) [I-2541, Ac-PL3-Asp-Npg-B5-Asp-3COOHF-Ala-Ala-Phe-Leu-PyrS2-2F3MeF-BztA-MorphGln-NH2] | 7.68 | < 4.70 | 5.33 | – | –
